Test results from patent publication US7196110B2, “N-substituted tricyclic 3-aminopyrazoles as inhibitors for the treatment of cell proliferative disorders” (Janssen Phamaceutica N.V., priority 2002, dated 2007).

Tests used:
[1] = molecular target: T1, PDGF-receptor beta enzyme comprising the tyrosine kinase domain (Homo sapiens, UniProt P09619); experiment: Inhibition of PDGF-receptor kinase activity (cell-free, PLC1 peptide, 33P Flashplate); assay type: biochemical; conditions: PDGF-R kinase activity; for inhibition at 10 µM: compound at 10 uM, read-out: Percent Inhibition @ 10 uM; for IC50: read-out: IC50
T1 construct: from amino acid 545 to 1106 of GenBank Access NO: AAA36427
How it was run: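 Recombinant kinase domain (aa 545–1106) phosphorylated a biotinylated PLC1 peptide with 5 μM ATP plus 33P-γ-ATP, in Tris pH 8, MgCl2, Na3VO4 and 1 mM DTT, for 60 min at 30 °C. Retained 33P was counted after washing. IC50 is the concentration halving activity versus no-inhibitor reactions.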

c-Abl kinase = c-Abl kinase (Abelson murine leukemia virus, UniProt P00521); experiment: Inhibition of c-Abl kinase activity (cell-free, Abl peptide substrate, 33P Flashplate); assay type: biochemical; conditions: IC50 for the c-Abl kinase activity
Protocol: The inhibitory activity of compounds within the scope of the invention on c-Abl kinase activity was tested according to the following procedure.
• 1. 10× Kinase Buffer [500 mM Tris-HCl pH=8, 100 mM MgCl2, 1 mM Na3VO4] • 2. 10 mM DTT [final concentration 1 mM] • 3. 10 mM ATP [final concentration 5 μM] (Gibco, Cat No:18330-019, Carlsbad, Calif.) • 4. ^33P-γ-ATP [NEG-602H; 2000–3000 Ci/mmol], 2 μCuries per well at 10 μCi/μl (0.2 μl/well) • 5. Abl enzyme (New England Biolabs, Cat No. P6050L, Beverly, Mass.) at 100 Units/μl use 10 Units/well (0.1 μl/well) • 6. Enzyme Dilution Buffer [50 mM Tris-HCl pH=8.0, 0.1% BSA] • 7. Wash/Stop Buffer [PBS+100 mM EDTA] • 8. NEN Streptavidin Flashplates (New England Nuclear, Cat No. SMP-103, Boston, Mass.). • 9. Abl Peptide Substrate (Biotin-[…]-amide) at 1 mM in 50 mM Tris-HCL pH=8.0. (Use at 1.0 μM). Procedure
Reagents were first mixed according to the following regimen:
The above reaction mixture was dispensed into each well of a Flashplate at 70 μl/well. To test the effect of a compound on Abl kinase activity, the test compound either in a fixed concentration or in serially diluted concentrations in 100% DMSO was added to appropriate wells at 1 μl/well.
Enzyme Abl was diluted in enzyme dilution buffer as following:
The kinase reaction was started by adding 30 μl of diluted Abl enzyme solution to each well on the Flashplate containing hot ATP (2 μCi/well) and Abl peptide substrate (at 1 μM final conc.), except wells of column 12 rows E and F, which were used to calculate the plate background. The Flashplate was swirled to mix and was incubated at 30° C. for 60 minutes. Then, the reaction mixture was discarded and the Flashplate was washed 3 times each with 200 μL Wash/Stop Buffer. Subsequently, each well on the Flashplate was filled with 200 μl of Wash/Stop buffer. The amount of ^33P retained in each well was measured using a Packard TopCount after the plate was sealed with a transparent plate sealer.
In order to test the potency of inhibition of present compounds, an IC50 for an individual compound was measured using the above procedure. As used herein, the IC50 for c-Abl kinase activity refers to the concentration of an inhibitor at which the activity of c-Abl kinase is reduced by one-half as compared with reactions containing no inhibitor.

T1 sequence (P09619 545-1106): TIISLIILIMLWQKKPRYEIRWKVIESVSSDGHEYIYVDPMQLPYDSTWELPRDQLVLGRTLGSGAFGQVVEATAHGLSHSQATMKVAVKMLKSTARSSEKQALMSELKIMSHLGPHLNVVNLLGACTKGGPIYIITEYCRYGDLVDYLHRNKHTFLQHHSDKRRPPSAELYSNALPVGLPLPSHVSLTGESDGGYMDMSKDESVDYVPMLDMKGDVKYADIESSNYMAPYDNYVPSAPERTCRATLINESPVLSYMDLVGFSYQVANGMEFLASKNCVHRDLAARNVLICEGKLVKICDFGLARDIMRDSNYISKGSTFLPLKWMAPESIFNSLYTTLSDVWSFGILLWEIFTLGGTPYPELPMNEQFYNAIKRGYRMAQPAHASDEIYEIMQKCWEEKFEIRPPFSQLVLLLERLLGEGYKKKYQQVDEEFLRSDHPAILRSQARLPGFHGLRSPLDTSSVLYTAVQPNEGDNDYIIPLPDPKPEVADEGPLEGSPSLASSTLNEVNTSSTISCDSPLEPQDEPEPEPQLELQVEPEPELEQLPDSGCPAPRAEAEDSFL
Sequence of c-Abl kinase (P00521 115-385): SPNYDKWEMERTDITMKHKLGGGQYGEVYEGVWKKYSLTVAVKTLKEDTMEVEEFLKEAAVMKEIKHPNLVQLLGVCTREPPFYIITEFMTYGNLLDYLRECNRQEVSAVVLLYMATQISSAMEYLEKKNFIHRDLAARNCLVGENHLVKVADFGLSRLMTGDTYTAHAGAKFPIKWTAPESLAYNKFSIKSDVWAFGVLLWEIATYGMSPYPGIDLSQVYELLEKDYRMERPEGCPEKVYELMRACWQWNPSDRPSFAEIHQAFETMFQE

SMILES	inhibition at 10 µM [1] [%]	IC50 [1] [nM]	IC50 (c-Abl kinase) [nM]
CCc1cccc(Nc2[nH]nc3c2Cc2cc(OC)c(OC)cc2-3)c1 [Compound 209, (6,7-Dimethoxy-2,4-dihydro-indeno[1,2-c]pyrazol-3-yl)-(3-ethyl-phenyl)-amine]	99	32.8	7
CCOc1cc2c(cc1OCC(O)CN1CCCC1)-c1n[nH]c(Nc3cccc(F)c3)c1C2 (stereo not drawn) [Compound 460, 1-[6-Ethoxy-3-(3-fluoro-phenylamino)-2,4-dihydro-indeno[1,2-c]pyrazol-7-yloxy]-3-pyrrolidin-1-yl-propan-2-ol]	97.5	4.27	4
COc1cccc(Nc2[nH]nc3c2Cc2cc(N)ccc2-3)c1 [Compound 118, N3-(3-Methoxy-phenyl)-2,4-dihydro-indeno[1,2-c]pyrazole-3,6-diamine]	74	21.3	427
Clc1cccc(Nc2[nH]nc3c2Cc2cc4c(cc2-3)OCO4)c1 [Compound 128, (3-Chloro-phenyl)-(2,9-dihydro-5,7-dioxa-2,3-diaza-cyclopenta[a]-s-indacen-1-yl)-amine]	88	59.6	313
COc1cc2c(cc1OCCCO)Cc1c-2n[nH]c1NCc1ccccc1F [Compound 386, 3-[3-(2-Fluoro-benzylamino)-7-methoxy-2,4-dihydro-indeno[1,2-c]pyrazol-6-yloxy]-propan-1-ol]	95.5	11	20
COc1cc2c(cc1Br)Cc1c-2n[nH]c1Nc1cccc(F)c1 [Compound 369, (6-Bromo-7-methoxy-2,4-dihydro-indeno[1,2-c]pyrazol-3-yl)-(3-fluoro-phenyl)-amine]	100	18.7	47
Cc1ccc2c(c1)-c1n[nH]c(Nc3cc(F)ccc3F)c1C2 [Compound 185, (2,5-Difluoro-phenyl)-(7-methyl-2,4-dihydro-indeno[1,2-c]pyrazol-3-yl)-amine]	84	50	666
COc1cc2c(cc1OC)-c1n[nH]c(Nc3cccc(SC)c3)c1C2 [Compound 208, (6,7-Dimethoxy-2,4-dihydro-indeno[1,2-c]pyrazol-3-yl)-(3-methylsulfanyl-phenyl)-amine]	82	3	9
COc1cc2c(cc1OC)-c1n[nH]c(Nc3cccc(C(N)=O)c3)c1C2 [Compound 116, 3-(6,7-Dimethoxy-2,4-dihydro-indeno[1,2-c]pyrazol-3-ylamino)-benzamide]	96	5.3	386
COc1cc2c(cc1OCCCN(C)C)Cc1c-2n[nH]c1Nc1cccc(F)c1 [Compound 199, [6-(3-Dimethylamino-propoxy)-7-methoxy-2,4-dihydro-indeno[1,2-c]pyrazol-3-yl]-(3-fluoro-phenyl)-amine]	83	5.9	27
COc1cccc(Nc2[nH]nc3c2Cc2cc(OCCCO)c(OC)cc2-3)c1 [Compound 266, 3-[7-Mehoxy-3-(3-methoxy-phenylamino)-2,4-dihydro-indeno[1,2-c]pyrazol-6-yloxy]-propan-1-ol]	110	1.53	15
CCOc1cc2c(cc1OCC(O)CN1CCCC1)-c1n[nH]c(Nc3cccnc3)c1C2 (stereo not drawn) [Compound 461, 1-[6-Ethoxy-3-(pyridin-3-ylamino)-2,4-dihydro-indeno[1,2-c]pyrazol-7-yloxy]-3-pyrrolidin-1-yl-propan-2-ol]	97.5	7.55	337
COc1ccc(OC)c(Nc2[nH]nc3c2Cc2ccccc2-3)c1 [Compound 341, (2,4-Dihydro-indeno[1,2-c]pyrazol-3-yl)-(2,5-dimethoxy-phenyl)-amine]	92.5	41.2	350
COc1cc2c(cc1OC)C(C)c1c-2n[nH]c1Nc1ccccc1 (stereo not drawn) [Compound 247, (6,7-Dimethoxy-4-methyl-2,4-dihydro-indeno[1,2-c]pyrazol-3-yl)-phenyl-amine]	96	70	33
CCOc1cc2c(cc1OCC)C(C)c1c-2n[nH]c1Nc1cccc(OC)c1 (stereo not drawn) [Compound 348, (6,7-Diethoxy-4-methyl-2,4-dihydro-indeno[1,2-c]pyrazol-3-yl)-(3-methoxy-phenyl)-amine]	97.5	25.3	11
COc1cc2c(cc1OCCCO)Cc1c-2n[nH]c1NCc1c(F)cccc1F [Compound 449, 3-[3-(2,6-Difluoro-benzylamino)-7-methoxy-2,4-dihydro-indeno[1,2-c]pyrazol-6-yloxy]-propan-1-ol]	98.5	4.1	23
COc1ccc2c(c1)-c1n[nH]c(Nc3ccc(F)cc3)c1C2 [Compound 170, (4-Fluoro-phenyl)-(7-methoxy-2,4-dihydro-indeno[1,2-c]pyrazol-3-yl)-amine]	95.5	26.8	75
Fc1ccc2c(c1)-c1n[nH]c(Nc3ccccc3)c1C2 [Compound 299, (7-Fluoro-2,4-dihydro-indeno[1,2-c]pyrazol-3-yl)-phenyl-amine]	80	19.3	198
COc1cccc(Nc2[nH]nc3c2Cc2cc(Br)c(OC)cc2-3)c1 [Compound 370, (6-Bromo-7-methoxy-2,4-dihydro-indeno[1,2-c]pyrazol-3-yl)-(3-methoxy-phenyl)-amine]	94	12.2	6
COc1cc2c(cc1OCC(O)CN1CCCC1)Cc1c-2n[nH]c1NCc1c(F)cccc1F (stereo not drawn) [Compound 391, 1-[3-(2,6-Difluoro-benzylamino)-7-methoxy-2,4-dihydro-indeno[1,2-c]pyrazol-6-yloxy]-3-pyrrolidin-1-yl-propan-2-ol]	99	6.8	14
COc1cc2c(cc1F)Cc1c-2n[nH]c1Nc1cccc(Br)c1 [Compound 358, (3-Bromo-phenyl)-(6-fluoro-7-methoxy-2,4-dihydro-indeno[1,2-c]pyrazol-3-yl)-amine]	92	8.77	338
COc1cc2c(cc1OC)-c1n[nH]c(Nc3cccc(OCc4ccccc4)c3)c1C2 [Compound 54, (3-Benzyloxy-phenyl)-(6,7-dimethoxy-2,4-dihydro-indeno[1,2-c]pyrazol-3-yl)-amine]	76	34.8	971
CCOc1cc2c(cc1OCCCO)Cc1c-2n[nH]c1Nc1cccnc1 [Compound 383, 3-[7-Ethoxy-3-(pyridin-3-ylamino)-2,4-dihydro-indeno[1,2-c]pyrazol-6-yloxy]-propan-1-ol]	93	25.3	183
COc1cc2c(cc1OCCCN1CCOCC1)Cc1c-2n[nH]c1Nc1cccc(Br)c1 [Compound 130, (3-Bromo-phenyl)-[7-methoxy-6-(3-morpholin-4-yl-propoxy)-2,4-dihydro-indeno[1,2-c]pyrazol-3-yl]-amine]	94.5	2.15	236
COc1ccc(Nc2[nH]nc3c2Cc2ccc(C)cc2-3)cc1Cl [Compound 309, (3-Chloro-4-methoxy-phenyl)-(7-methyl-2,4-dihydro-indeno[1,2-c]pyrazol-3-yl)-amine]	92.5	30.2	822
CCOc1cccc(Nc2[nH]nc3c2Cc2cc(OC)c(OC)cc2-3)c1 [Compound 374, (6,7-Dimethoxy-2,4-dihydro-indeno[1,2-c]pyrazol-3-yl)-(3-ethoxy-phenyl)-amine]	100	14.1	51
